We go through five compounds from publication PMC9218685, “Legume Plant Peptides as Sources of Novel Antimicrobial Molecules Against Human Pathogens” (Frontiers in Molecular Biosciences, 2022).

≈ marks a conversion by molar mass, not a printed value. Entries after “also recorded” stand apart in the source; their conditions may differ. Where two headings read alike, the source gives them in different places. Ends that are not written are not given here. Peptide text beside a SMILES is read from it.

The subject of experiment [1] is Acinetobacter baumannii (ATCC 17978). In words: microbe, parasite or virus in culture. Format: cell-based. The settings on record: read-out: MBC, minimal bactericidal concentration against A. baumannii. The gist of the method: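 Complete loss of viable bacteria after 3 h defined the MBC. Two-fold peptide series, 25 µM top concentration, ~10^7 log-phase cells in potassium-phosphate buffer pH 7.4.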

For experiment [2], the system named is Lambda DNA/HindIII marker. In words: Gel retardation assay (DNA aggregation). It is filed as binding. Particulars: 100 ng DNA, 5 or 10 µM peptide in water, 30 min at room temperature, 1% agarose gel. Here is the method:
Interactions of peptides with DNA was visualized with gel retardation assay ([Hsu et al., 2005]). 100 ng Lambda DNA/HindIII marker (ThermoFisher Scientific) was incubated with 0, 5 or 10 µM synthetic NCRs or NCR derivatives in water for 30 min at room temperature and then loaded into 1% agarose gel. Electrophoresis of DNA fragments separated the mobile HindIII-digested DNA fragments while the aggregated DNA remained in the loading wells.
FIGURE 6 Aggregation of DNA by NCR peptides. Lambda HindIII digested DNA was incubated without (0) or with NCR peptides at 5 or 10 μM concentration.

In experiment [3] the test system is E. coli, S. enteritidis, P. aeruginosa, L. monocytogenes, S. aureus, E. faecalis, K. pneumoniae and A. baumannii. In words: Antimicrobial activity assay, spectrum over the eight tested pathogenic bacteria. Format: cell-based. Particulars: 3 h treatment of ~10^7 log phase bacteria, peptides 25 to 0.8 µM; active = MBC ≤25 µM. Put shortly:
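Log-phase bacteria (~10^7) treated 3 h with NCR peptides in potassium-phosphate buffer pH 7.4, two-fold dilutions from 25 µM to 0.8 µM. MBC is the lowest concentration completely eliminating viable bacteria. Strains: E. faecalis ATCC 29212, S. aureus HNCMO112011, L. monocytogenes ATCC 19111, P. aeruginosa ATCC 27853, E. coli ATCC 8739, S. enterica ATCC 13076, K. pneumoniae NCTC 13440, A. baumannii ATCC 17978.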

Experiment [4] deals with A. baumannii. Kind of experiment: Scanning electron microscopy of cell morphology. It is filed as cell-based, Acinetobacter baumannii. The settings on record: 30 min treatment, peptide 1.6 or 3.125 µM as in Figure 3 legend. Here is the method:
(§1) A. baumannii and C. albicans were grown and treated the same way as for the membrane permeability assay. Cells were then fixed with 2.5% (v/v) glutaraldehyde in phosphate buffered saline (PBS, pH 7.4). 5 μl of the above bacterial and yeast suspensions were spotted on a silicon disk coated with 0.01% Poly-L-Lysine. The filters were washed twice with PBS and gradually dehydrated with ethanol series (30, 50, 70, 80%, and three times 100% ethanol, each for minimum 30 min). The samples were dried with a critical point dryer (K850: Quorum Technologies Ltd.), followed by 12 nm gold coating and observed under a JEOL JSM-7100F/LV scanning electron microscope.
FIGURE 3 Viability, membrane permeability and morphology of A. baumannii cells after NCR treatment (A–L) SYTO9/PI staining observed with confocal microscope, (M–X) Cell morphology observed with SEM. (A,M) untreated control, (B,N) CaNCR13, 3.125 µM, (C,O) CaNCR63, 3.125 µM, (D,P) CaNCR63_1-20, 3.125 µM, (E,Q) CaNCR63_15-34, 3.125 µM, (F,R) MsNCR443, 3.125 µM, (G,S) MsNCR463_16-35, 1.6 µM, (H,T) MsNCR463_17-30, 3.125 µM, (I,U) PsNCR349, 1.6 µM, (J,V) PsNCR349_26-50, 3.125 µM, (K,W) PsNCR349_31-50, 3.125 µM, (L,X) PsNCR352, 1.6 µM.

Experiment [5] concerns C. albicans. Kind of experiment: Scanning electron microscopy of cell morphology. Format: cell-based, Candida albicans. Particulars: 30 min treatment, peptide 1.6, 3.125 or 25 µM as in Figure 4 legend. The method, then:
as §1

The test system of experiment [6] is Candida albicans W01 strain. Kind of experiment: microbe, parasite or virus in culture. It is filed as cell-based. The settings on record: read-out: MFC, minimal fungicidal concentration against C. albicans. An excerpt: The following pathogenic bacterial strains were used: The Gram-positive Enterococcus faecalis (ATCC 29212), Staphylococcus aureus (HNCMO112011), Listeria monocytogenes (ATCC 19111) and the Gram-negative Pseudomonas aeruginosa (ATCC 27853), Escherichia coli (ATCC 8739), Salmonella enterica (ATCC 13076), Klebsiella pneumoniae (NCTC 13440), Acinetobacter baumannii (ATCC 17978) obtained from the ATCC (United States) and NCTC (National Collection of Type Cultures–England). For the antifungal experiment the Candida albicans W01 strain ([Ördögh et al., 2014]) was used. Antimicrobial activities of peptides against ∼10^7 log phase bacteria were tested in Potassium-Phosphate Buffer (PPB, pH 7.4) as described by [Jenei et al. (2020)] while anti-Candida assays were done according to [Szerencsés et al. (2021)]. The two-fold dilution series of peptides ranged from 25 μM to 0.125 μM, while that of the antibiotics ampicillin (Merck) and miconazole (Duchefa Biochemie) from […] to 0.1 μM. The lowest concentration of the antimicrobial agents, which completely eliminated viable bacteria or C. albicans were considered as the minimal bactericidal concentration (MBC) and minimal fungicidal concentration (MFC).

The mark [7] stands for this setting: ~10^7 log phase bacteria, Potassium-Phosphate Buffer pH 7.4, 3 h treatment, two-fold dilution series, lowest concentration completely eliminating viable bacteria.
Where [8] appears, read: C. albicans W01, two-fold dilution series, lowest concentration completely eliminating viable C. albicans.

Turning to `CC[C@H](C)[C@H](NC(=O)[C@H](CCCCN)NC(=O)[C@H](CO)NC(=O)[C@H](CCCNC(=N)N)NC(=O)[C@@H]1CCCN1C(=O)[C@H](CS)NC(=O)[C@H](CCCNC(=N)N)NC(=O)[C@H](Cc1ccc(O)cc1)NC(=O)[C@H](CCCCN)NC(=O)[C@H](CCCCN)NC(=O)[C@H](CS)NC(=O)[C@H](CC(=O)O)NC(=O)[C@@H](NC(=O)[C@H](CCCNC(=N)N)NC(=O)[C@@H](NC(=O)[C@H](CCCCN)NC(=O)[C@H](CS)NC(=O)[C@@H](NC(=O)[C@H](CCSC)NC(=O)[C@@H](N)CCCCN)[C@@H](C)CC)[C@@H](C)O)C(C)C)C(=O)N[C@@H](CCCCN)C(=O)N[C@@H](CC(=O)O)C(=O)N[C@@H](CS)C(=O)N[C@H](C(=O)N[C@@H](CCCCN)C(=O)NCC(=O)N[C@@H](Cc1ccc(O)cc1)C(=O)N[C@@H](CS)C(=O)N[C@@H](CCCNC(=N)N)C(=O)N[C@@H](CS)C(=O)N[C@H](C(=O)N[C@@H](CCCNC(=N)N)C(=O)N[C@@H](CCCCN)C(=O)N[C@@H](CCCCN)C(=O)O)C(C)C)C(C)C` [CaNCR63] (H-KMICKTRVDCKKYRCPRSKIKDCVKGYCRCVRKK-OH; N-terminus assumed), in experiment [1] (setting [7]), the MBC worked out at 6.25 µM (≈ 25.8 µg/mL). The “Aggregation of HindIII-digested λ DNA (DNA retained in loading wells)” value (“Aggregation of HindIII-digested λ DNA” below) in experiment [2] is listed as “DNA remained in the wells”. In addition, in experiment [3], the “Antibacterial spectrum over the eight tested bacterial strains” value is given as “broad-spectrum activity”. Further, the “Morphology of A. baumannii cells by SEM” value in experiment [4] was “rough cell surface, lysis and flattening of the cells”. Besides, in experiment [5], the “Morphology of C. albicans cells by SEM” value is reported as “Flattening of cells; also recorded: aggregation of shrunken cells in a spider net like matrix”.

On to `CC[C@H](C)[C@H](NC(=O)[C@H](CCCCN)NC(=O)[C@H](CO)NC(=O)[C@H](CCCNC(=N)N)NC(=O)[C@@H]1CCCN1C(=O)[C@H](CS)NC(=O)[C@H](CCCNC(=N)N)NC(=O)[C@H](Cc1ccc(O)cc1)NC(=O)[C@H](CCCCN)NC(=O)[C@H](CCCCN)NC(=O)[C@H](CS)NC(=O)[C@H](CC(=O)O)NC(=O)[C@@H](NC(=O)[C@H](CCCNC(=N)N)NC(=O)[C@@H](NC(=O)[C@H](CCCCN)NC(=O)[C@H](CS)NC(=O)[C@@H](NC(=O)[C@H](CCSC)NC(=O)[C@@H](N)CCCCN)[C@@H](C)CC)[C@@H](C)O)C(C)C)C(N)=O` [CaNCR63_1-20] (H-KMICKTRVDCKKYRCPRSKI-NH2; N-terminus assumed), for which the MBC in experiment [1] (ATCC 17978, 3 h, pH 7.4) is listed as 6.25 µM (≈ 15.4 µg/mL). The “Aggregation of HindIII-digested λ DNA” value in experiment [2] is recorded as “less efficient than either the full-length peptide or the C-terminal CaNCR63_15-34”. For the same compound, the MFC in experiment [6] (W01 strain) is 25 µM (≈ 61.4 µg/mL). In addition, the “Morphology of A. baumannii cells by SEM” value in experiment [4] is “rough cell surface, lysis and flattening of the cells”. For the same compound, in experiment [5], the “Morphology of C. albicans cells by SEM” value is recorded as “most similar to the control”.

Take `CC(C)[C@H](NC(=O)CNC(=O)[C@H](CCCNC(=N)N)NC(=O)[C@H](CCCCN)NC(=O)[C@@H]1CCCN1C(=O)[C@H](CCCCN)NC(=O)[C@@H](N)CS)C(=O)N[C@@H](CC(N)=O)C(=O)N[C@@H](Cc1ccccc1)C(=O)N[C@@H](CCCNC(=N)N)C(=O)N[C@@H](CS)C(=O)N[C@@H](CCCNC(=N)N)C(=O)N[C@@H](CCCCN)C(=O)NCC(=O)N[C@@H](CCCCN)C(=O)N[C@@H](CS)C(=O)N[C@@H](Cc1ccccc1)C(=O)N1CCC[C@H]1C(=O)N[C@H](C(=O)N[C@@H](CCCNC(=N)N)C(N)=O)C(C)C` [MsNCR463_16-35] (H-CKPKRGVNFRCRKGKCFPVR-NH2; N-terminus assumed): in experiment [1] (setting [7]), the MBC was found to be 1.6 µM (≈ 3.81 µg/mL). Besides, the “Aggregation of HindIII-digested λ DNA” value in experiment [2] is “DNA remained in the wells”. The MFC in experiment [6] (setting [8]) is listed as 3.1 µM (≈ 7.37 µg/mL); in experiment [6] (W01 strain), 3.125 µM (≈ 7.43 µg/mL). Further, the “Morphology of A. baumannii cells by SEM” value in experiment [4] is “budding of vesicles; also recorded: Filament-like structures”. Further, in experiment [5], the “Morphology of C. albicans cells by SEM” value is given as “Flattening of cells”.

With `CC[C@H](C)[C@H](NC(=O)[C@H](CCCNC(=N)N)NC(=O)[C@H](CCCNC(=N)N)NC(=O)[C@H](CS)NC(=O)[C@H](CCCNC(=N)N)NC(=O)[C@H](CCCNC(=N)N)NC(=O)[C@H](CCC(=O)O)NC(=O)[C@@H](NC(=O)[C@H](CS)NC(=O)[C@H](CC(C)C)NC(=O)[C@@H](NC(=O)[C@H](CCCCN)NC(=O)[C@H](Cc1ccc(O)cc1)NC(=O)[C@@H](NC(=O)[C@H](CCCCN)NC(=O)[C@H](CO)NC(=O)[C@H](CS)NC(=O)[C@H](CCCNC(=N)N)NC(=O)[C@H](Cc1ccccc1)NC(=O)[C@H](CCCNC(=N)N)NC(=O)[C@H](CC(C)C)NC(=O)[C@H](CS)NC(=O)[C@H](CC(=O)O)NC(=O)[C@H](CO)NC(=O)[C@H](CC(=O)O)NC(=O)[C@H](CC(N)=O)NC(=O)[C@H](CC(C)C)NC(=O)[C@H](CS)NC(=O)[C@H](CCCNC(=N)N)NC(=O)[C@H](CC(C)C)NC(=O)CNC(=O)[C@H](CO)NC(=O)[C@@H]1CCCN1)[C@@H](C)CC)C(C)C)[C@@H](C)CC)C(=O)N[C@@H](CCCCN)C(=O)N[C@@H](CCSC)C(=O)N[C@@H](Cc1c[nH]cn1)C(=O)O` [PsNCR352], the MBC in experiment [1] (setting [7]) was 6.25 µM (≈ 27.3 µg/mL). The “Aggregation of HindIII-digested λ DNA” value in experiment [2] is “did not”. In experiment [3], the “Antibacterial spectrum over the eight tested bacterial strains” value is on record as “broad-spectrum activity”. For the same compound, the “Morphology of A. baumannii cells by SEM” value in experiment [4] is “cell form was preserved”. Further, the “Morphology of C. albicans cells by SEM” value in experiment [5] is recorded as “Flattening of cells; also recorded: aggregation of shrunken cells in a spider net like matrix”.

Take “YNLKYCTNDKDCPTMMCFPPDVSKCVWKTCYCVQKHKKKLKKKKKLTFNM-OH (cysteines drawn unpaired) [PsNCR349]”: in experiment [2], the “Aggregation of HindIII-digested λ DNA” value is “DNA remained in the wells”. In experiment [6] (setting [8]), the MFC is recorded as 3.125 µM. The “Antibacterial spectrum over the eight tested bacterial strains” value in experiment [3] is reported as “broad-spectrum activity”. Further, in experiment [4], the “Morphology of A. baumannii cells by SEM” value is “Only dead cells were visible”. The “Morphology of C. albicans cells by SEM” value in experiment [5] is given as “Flattening of cells”.
